Measured values from patent US8703811B2, “Small molecule inhibitors of Plasmodium falciparum dihydroorotate dehydrogenase” (Genzyme Corporation, priority 2008, dated 2014).
≈ marks a conversion by molar mass, not a printed value. Read-outs that look alike come from different tables or passages of the source.

Tests used:
[1] = molecular target: hsDHODH (Homo sapiens (Human), UniProt Q02127); assay: DCIP assay, hsDHODH; assay type: biochemical
[2] = Solubility measurement; assay type: physicochemical
Excerpt: Many standard techniques are known in the art to establish the solubility of a compound in a particular solvent. The following description is one such technique that could be used to determine the solubility: Equilibrium solubility measurements start with the solid form of the compound (crystalline form preferred). The powder is physically mixed with an aqueous buffer (defined pH) until equilibrium is reached. Either centrifugation or filtration can be used to separate the solution from the remaining solid. The amount dissolved in the solution can be determined by any one of many known methods including HPLC or UV/Vis spectroscopic techniques.

[3] = test system: P. falciparum 3D7; assay: Inhibition of in vitro P. falciparum culture, [3H]-hypoxanthine uptake, 3D7; assay type: cell-based; details: for EC50: read-out: 3D7 EC50; for IC50: read-out: 3D7 IC50
In short: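 Parasite growth inhibition measured as relative reduction of [3H]-hypoxanthine uptake in in vitro cultures. Values from non-linear regression fit, using relative growth velocity in place of product-formation rate.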

[4] = test system: Renal Proximal Tubule Epithelial Cells; assay: Renal Proximal Tubule Epithelial Cell Toxicity Screen; assay type: cell-based
In short: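 Normal renal epithelial cells seeded at 1.5×10^4 cells/mL, grown 24 h at 37 °C/5% CO2, then exposed to compounds for 96 h; a T=0 plate was read at dosing. Viability by Alamar Blue fluorescence after 4 h, with Tween 20 and DMSO wells as positive and negative controls.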

[5] = molecular target: Cytochrome P450 2C19 (Homo sapiens (Human), UniProt P33261); assay: Cytochrome P450 inhibition, 2C19; assay type: in vitro ADME
Chain of Cytochrome P450 2C19 (P33261 whole entry): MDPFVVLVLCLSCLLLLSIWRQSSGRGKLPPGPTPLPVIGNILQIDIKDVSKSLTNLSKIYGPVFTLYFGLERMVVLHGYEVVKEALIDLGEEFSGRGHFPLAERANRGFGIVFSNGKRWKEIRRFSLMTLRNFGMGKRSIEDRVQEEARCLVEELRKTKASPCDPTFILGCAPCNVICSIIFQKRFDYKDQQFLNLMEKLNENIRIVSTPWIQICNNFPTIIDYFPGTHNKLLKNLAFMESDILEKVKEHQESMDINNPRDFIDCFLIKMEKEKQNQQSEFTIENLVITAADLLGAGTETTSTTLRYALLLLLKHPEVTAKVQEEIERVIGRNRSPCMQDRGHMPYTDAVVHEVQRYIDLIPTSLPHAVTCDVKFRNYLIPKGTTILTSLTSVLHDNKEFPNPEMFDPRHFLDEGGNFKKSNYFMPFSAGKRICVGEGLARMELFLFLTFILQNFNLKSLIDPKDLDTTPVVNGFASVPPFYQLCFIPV
Excerpt: (§1) Rapid screening for cytochrome P450 inhibitors is part of the current paradigm for avoiding development of drugs likely to give clinical pharmacokinetic drug-drug interactions and associated toxicities. There are commercially available assays for such screenings. For example, BD Biosciences (http://www.bdbiosciences.com/index.shtml) provides a technical bulletin describing a detailed, step-by-step procedure for the performance of the high throughput cytochrome P450 inhibition testing method.

[6] = Hepatic clearance, human; assay type: in vitro ADME
Excerpt: (§2) Clearance of drug by the liver will depend on the rate of delivery of drug to the liver (the hepatic blood flow) and on the efficiency of removal of drug which is presented to it (the extraction ratio). The hepatic clearance of compounds can be determined by standard methods known in the art. Such methods are described in, for example, Naritomi, Y; Terashita, S; Kagayama, A; Sugiyama, Y. “Utility of Hepatocytes in Predicting Drug Metabolism: Comparison of Hepatic Intrinsic Clearance in Rats and Humans in Vivo and in Vitro.” 2003, 31 (5): pages 580-588.

[7] = molecular target: Cytochrome P450 1A2 (Homo sapiens (Human), UniProt P05177); assay type: in vitro ADME
Chain of Cytochrome P450 1A2 (P05177 whole entry): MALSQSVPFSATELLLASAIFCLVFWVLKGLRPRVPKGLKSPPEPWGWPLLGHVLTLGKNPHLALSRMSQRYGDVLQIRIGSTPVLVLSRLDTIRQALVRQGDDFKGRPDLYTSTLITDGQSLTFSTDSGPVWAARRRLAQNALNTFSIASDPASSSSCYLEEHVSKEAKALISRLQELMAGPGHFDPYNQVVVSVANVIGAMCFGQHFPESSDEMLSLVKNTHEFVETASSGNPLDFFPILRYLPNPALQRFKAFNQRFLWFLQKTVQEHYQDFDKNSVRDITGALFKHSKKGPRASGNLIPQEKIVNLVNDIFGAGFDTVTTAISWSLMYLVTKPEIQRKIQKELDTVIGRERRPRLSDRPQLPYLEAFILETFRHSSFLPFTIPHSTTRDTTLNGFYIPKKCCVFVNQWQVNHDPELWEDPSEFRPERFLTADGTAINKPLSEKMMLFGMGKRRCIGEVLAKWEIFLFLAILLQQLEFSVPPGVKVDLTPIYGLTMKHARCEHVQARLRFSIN
Excerpt: as §1

[8] = molecular target: Cytochrome P450 2C9 (Homo sapiens (Human), UniProt P11712); assay: Cytochrome P450 inhibition, 2C9; assay type: in vitro ADME
Chain of Cytochrome P450 2C9 (P11712 whole entry): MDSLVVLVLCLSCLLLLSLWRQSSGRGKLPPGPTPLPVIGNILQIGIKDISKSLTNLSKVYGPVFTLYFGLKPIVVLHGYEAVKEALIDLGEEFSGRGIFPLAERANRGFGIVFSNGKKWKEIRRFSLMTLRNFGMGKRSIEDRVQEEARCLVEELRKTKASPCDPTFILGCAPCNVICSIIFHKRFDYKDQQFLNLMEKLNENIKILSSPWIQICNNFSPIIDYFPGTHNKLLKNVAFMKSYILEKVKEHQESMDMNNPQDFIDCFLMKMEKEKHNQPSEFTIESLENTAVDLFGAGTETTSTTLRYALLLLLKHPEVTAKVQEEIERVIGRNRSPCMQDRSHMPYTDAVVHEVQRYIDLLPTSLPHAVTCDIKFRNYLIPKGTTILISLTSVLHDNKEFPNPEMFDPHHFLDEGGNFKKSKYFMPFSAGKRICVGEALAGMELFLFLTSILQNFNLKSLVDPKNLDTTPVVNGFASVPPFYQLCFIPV
Excerpt: as §1

[9] = Hepatic clearance, rat; assay type: in vitro ADME
Excerpt: as §2

[10] = molecular target: Cytochrome P450 2D6 (Homo sapiens (Human), UniProt P10635); assay: Cytochrome P450 inhibition, 2D6; assay type: in vitro ADME
Chain of Cytochrome P450 2D6 (P10635 whole entry): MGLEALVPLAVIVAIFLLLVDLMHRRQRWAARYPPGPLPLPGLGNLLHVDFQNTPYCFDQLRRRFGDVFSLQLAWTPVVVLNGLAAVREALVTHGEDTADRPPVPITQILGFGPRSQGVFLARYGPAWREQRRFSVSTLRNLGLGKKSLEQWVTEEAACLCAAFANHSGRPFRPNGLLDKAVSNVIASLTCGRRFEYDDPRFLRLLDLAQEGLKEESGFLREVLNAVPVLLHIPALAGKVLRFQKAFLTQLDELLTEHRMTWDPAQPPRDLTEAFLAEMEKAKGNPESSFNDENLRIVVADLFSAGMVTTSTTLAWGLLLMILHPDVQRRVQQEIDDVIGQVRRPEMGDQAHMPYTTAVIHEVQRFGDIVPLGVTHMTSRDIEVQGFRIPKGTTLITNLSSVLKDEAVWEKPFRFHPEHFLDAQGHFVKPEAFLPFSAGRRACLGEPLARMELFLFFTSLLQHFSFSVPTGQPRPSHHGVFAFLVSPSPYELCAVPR
Excerpt: as §1

[11] = molecular target: Cytochrome P450 3A4 (Homo sapiens (Human), UniProt P08684); assay: Cytochrome P450 inhibition, 3A4; assay type: in vitro ADME
Chain of Cytochrome P450 3A4 (P08684 whole entry): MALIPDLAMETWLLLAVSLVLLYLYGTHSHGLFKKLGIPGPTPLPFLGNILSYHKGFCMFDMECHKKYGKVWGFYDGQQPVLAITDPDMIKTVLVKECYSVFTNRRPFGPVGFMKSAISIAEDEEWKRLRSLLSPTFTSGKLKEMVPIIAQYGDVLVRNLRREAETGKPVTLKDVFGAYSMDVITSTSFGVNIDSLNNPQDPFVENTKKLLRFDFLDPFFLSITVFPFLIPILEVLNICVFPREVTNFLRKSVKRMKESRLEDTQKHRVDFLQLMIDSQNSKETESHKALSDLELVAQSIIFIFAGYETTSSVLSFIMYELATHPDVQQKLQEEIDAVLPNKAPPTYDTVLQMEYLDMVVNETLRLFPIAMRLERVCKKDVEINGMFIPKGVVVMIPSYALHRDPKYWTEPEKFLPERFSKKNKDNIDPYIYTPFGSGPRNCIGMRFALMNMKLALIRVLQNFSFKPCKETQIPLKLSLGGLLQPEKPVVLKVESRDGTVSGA
Excerpt: as §1

[12] = Table 2b, read-out: Hu (human DHODH) IC50
[13] = Table 3, DCIP assay, 20 nM hsDHODH, read-out: hsDHODH IC50
[14] = aqueous buffer, thermodynamic from solid, read-out: Solubility
[15] = Plasmodium falciparum, 3D7, Table 2b
[16] = Plasmodium falciparum, 3D7, Table 3, [3H]-hypoxanthine uptake

Chain of hsDHODH (Q02127 29-395 limits assumed): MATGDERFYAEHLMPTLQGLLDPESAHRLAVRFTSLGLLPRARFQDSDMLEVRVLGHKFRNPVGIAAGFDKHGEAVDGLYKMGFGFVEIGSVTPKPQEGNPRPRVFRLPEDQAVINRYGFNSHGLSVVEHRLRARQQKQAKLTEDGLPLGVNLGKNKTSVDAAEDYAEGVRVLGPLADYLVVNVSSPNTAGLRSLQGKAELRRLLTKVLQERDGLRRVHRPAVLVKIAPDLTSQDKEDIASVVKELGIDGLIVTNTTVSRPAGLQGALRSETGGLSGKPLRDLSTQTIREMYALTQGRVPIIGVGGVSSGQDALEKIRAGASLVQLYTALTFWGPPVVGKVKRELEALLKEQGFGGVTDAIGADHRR

Row | Molecule | IC50 [1, 12] | IC50 [1, 13] | solubility [2] | EC50 ([3]; Table 2b) | IC50 ([3]; Table 3, [3H]-hypoxanthine uptake) | CC50 ([4]; 4 days exposure, Alamar Blue, read-out: Kidney Epithelial LC50) | IC50 ([1]; DCIP assay, 200 μM L-DHO, 18 μM CoQD, 100 μM DCIP, 20 nM enzyme, read-out: hsDHODH IC50) | solubility [2, 14] | IC50 ([3]; Plasmodium falciparum, 3D7, Erythrocyte, [3H]-hypoxanthine uptake by parasite infected erythrocytes) | EC50 [3, 15] | IC50 [3, 16] | Cytochrome P450 Inhibition, 2C19 [5] | microsomal CLint [6] | Cytochrome P450 Inhibition, 1A2 [7] | Cytochrome P450 Inhibition, 2C9 [8] | microsomal CLint [9] | Cytochrome P450 Inhibition, 2D6 [10] | Cytochrome P450 Inhibition, 3A4 [11] | cytotoxicity in kidney epithelial cells [4]
1 | 5-(1H-indol-1-yl)-N-propylthiophene-2-carboxamide [Compound 7] | > 30000 nM | > 30000 nM | 1 µg/mL | 708 nM | 710 nM | 50000 nM |  |  |  |  |  |  |  |  |  |  |  |  | 
2 | CCCNC(=O)c1ccc(-n2c(C)cc3ccccc32)s1 [Compound 1, 5-(2-methyl-1H-indol-1-yl)-N-propylthiophene-2-carboxamide] | > 30000 nM | > 30000 nM |  |  |  |  | > 30000 nM | 0.9 µg/mL (≈ 3.02 µM) | 470 nM | 386 nM | 390 nM |  |  |  |  |  |  |  | 
3 | CCCNC(=O)c1ccc(-n2cnc3ccccc32)s1 [Compound 11, 5-(1H-benzo[d]imidazol-1-yl)-N-propylthiophene-2-carboxamide] | > 30000 nM | > 30000 nM |  |  |  |  |  | > 30 µg/mL |  | 472 nM | 470 nM | >5.0 in 2C19 μM | 49 µL/min/mg | >5.0 in 1A2 μM | >5.0 in 2C9 μM | > 119 µL/min/mg | >5.0 in 2D6 μM | >5.0 in 3A4 μM | 
4 | CCCNC(=O)c1ccc(-n2c(C)nc3ccccc32)s1 [Compound 12, 5-(2-methyl-1H-benzo[d]imidazol-1-yl)-N-propylthiophene-2-carboxamide] | > 30000 nM | > 30000 nM |  |  |  |  |  | > 30 µg/mL |  | 628 nM | 630 nM | >5.0 in 2C19 μM | 33 µL/min/mg | >5.0 in 1A2 μM | >5.0 in 2C9 μM | 102 µL/min/mg | >5.0 in 2D6 μM | >5.0 in 3A4 μM | No adverse cytotoxicity
